For test [1], the target named is T1, Oxytocin receptor (Rattus norvegicus, UniProt P70536).
T1 sequence (P70536 whole entry): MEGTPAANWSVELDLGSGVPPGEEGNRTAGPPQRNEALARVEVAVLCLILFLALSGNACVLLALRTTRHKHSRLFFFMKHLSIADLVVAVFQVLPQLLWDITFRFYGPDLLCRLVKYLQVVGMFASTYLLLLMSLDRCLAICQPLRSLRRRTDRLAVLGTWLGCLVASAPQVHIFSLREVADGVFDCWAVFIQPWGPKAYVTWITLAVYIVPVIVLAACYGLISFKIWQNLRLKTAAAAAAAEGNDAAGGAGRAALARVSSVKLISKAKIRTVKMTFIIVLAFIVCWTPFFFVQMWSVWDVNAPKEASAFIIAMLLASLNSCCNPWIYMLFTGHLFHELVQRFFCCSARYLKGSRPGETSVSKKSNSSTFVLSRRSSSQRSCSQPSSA
Briefly: Binding affinity against Oxytocin receptor was determined in rat uterine membrane using radioligand [3H]oxytocin. It is filed as cell membranes.

Test [2] is filed under the species Rattus norvegicus. Briefly: Biological activity was determined by pressor test using pithed rat preparations (protracted action). It is filed as functional.
Test [3] relates to Rattus norvegicus. In words: Biological activity was determined by uterotonic in vivo test using urethane-anesthetized rats (protracted action). It is filed as functional.
Test [4] is filed under the species Rattus norvegicus. Briefly: Biological activity was determined by uterotonic in vitro test in magnesium-free solution. It is filed as functional.
The subject of test [5] is Rattus norvegicus. In words: Biological activity was determined by uterotonic in vivo test using urethane-anesthetized rats. In kind it is functional.
For test [6], the species on record is Rattus norvegicus. Briefly: Biological activity was determined by pressor test using pithed rat preparations. In kind it is functional.

SMILES strings stand for the structures.

As usually defined, the Ki is the dissociation constant of the complex between target and ligand, obtained from inhibition or displacement. Low values mean tighter binding, high ones weaker binding.

On to `CC[C@H](C)[C@@H]1NC(=O)[C@H](Cc2ccc(O)cc2)NC(=O)[C@@H](N)CSSSC[C@@H](C(=O)N2CCC[C@H]2C(=O)N[C@@H](CC(C)C)C(=O)NCC(N)=O)NC(=O)[C@H](CC(N)=O)NC(=O)[C@H](CCC(N)=O)NC1=O` [OXYTOCIN TRISULFIDE], for which the inhibition constant (Ki) in test [1] is 6 nM.
In the case of `CC[C@H](C)[C@@H]1NC(=O)[C@H](Cc2ccc(O)cc2)NC(=O)CCSSSC[C@H](C(=O)N2CCC[C@H]2C(=O)N[C@@H](CC(C)C)C(=O)NCC(N)=O)NC(=O)[C@H](CC(N)=O)NC(=O)[C@H](CCC(N)=O)NC1=O` [DEAMINOOXYTOCIN TRISULFIDE], the Activity in test [2] is 0.6 IU mg-1; in test [3] it was 135 IU mg-1; in test [4], 32.7 IU mg-1. Further, the inhibitory constant (Ki) in test [1] turned out to be 3 nM.
Consider `CC[C@H](C)[C@@H]1NC(=O)[C@H](Cc2ccc(O)cc2)NC(=O)[C@@H](N)CSSC[C@@H](C(=O)N2CCC[C@H]2C(=O)N[C@@H](CC(C)C)C(=O)NCC(N)=O)NC(=O)[C@H](CC(N)=O)NC(=O)[C@H](CCC(N)=O)NC1=O` [OXYTOCIN], for which the figures for the Activity in test [5], in test [4] and in test [6] were 450 IU mg-1, 510 IU mg-1 and 5 IU mg-1, respectively.
Take `CC[C@H](C)[C@@H]1NC(=O)[C@H](Cc2ccc(O)cc2)NC(=O)CCSSC[C@@H](C(=O)N2CCC[C@H]2C(=O)N[C@@H](CC(C)C)C(=O)NCC(N)=O)NC(=O)[C@H](CC(N)=O)NC(=O)[C@H](CCC(N)=O)NC1=O` [DEMOXYTOCIN]: the Activity in test [3] was found to be 541 IU mg-1; in test [4] it was 576 IU mg-1; in test [6] it was 5 IU mg-1. The same compound registered a Ki in test [1] of 0.9 nM.

Source of the values: ChEMBL document CHEMBL1129969 (J Med Chem, 1997).
